In patent publication US20240365781A1, “SYNERGISTICALLY EFFECTIVE HERBICIDE COMPOSITION COMPRISING PELARGONIC ACID AND FLAZASULFURON” (Belchim Crop Protection NV, priority 2017, published 2024):

How the values were obtained:
Type in all cases: in vivo
Stellaria media = assay: post-emergence field trial under rows of apple trees, 150-200 L water/ha (Examples 10-12)
Taraxacum officinalis = assay: as above
Veronica persicae = assay: as above
Echinochloa crusgalli = assay: post-emergence test, field trial (Examples 1-5); conditions: FT
Excerpt: (§1) The expected activity of a given combination of two or three herbicides can be calculated as follows according to a calculation method by Colby (cf. COLBY, S. R.: “Calculating synergistic and antagonistic responses of herbicide combinations”, • Weeds 15, pages 20-22, 1967): • If X=% damage by herbicide (A) at an application rate of m g/ha, • Y=% damage by herbicide (B) at an application rate of n g/ha, • E=the expected damage by herbicides (A) and (B) at application rates of m and n […] and, • then for a combination:
(§2) Individual compositions comprising pelargonic acid or flazasulfuron are compared with a herbicide composition according to the invention comprising pelargonic acid and flazasulfuron.
(§3) Herbicidal activity was determined by performing a post-emergence test. […] The corresponding mixture was in the form of a spray liquor. Besides, spray liquors of individual compositions comprising pelargonic acid or flazasulfuron were used.
(§4) Tests were performed on test fields (field trials) or in pots (pot trials).

Convolvulus arvensis L. = assay: post-emergence test, field trial (Examples 1-5); conditions: 3 d, FT; pelargonic acid 5440 g/ha, flazasulfuron 50 g/ha; 8 L/ha
Excerpt: as §1, §2, §3, §4

Erodium cicuta = assay: post-emergence test, field trial (Examples 1-5); conditions: 28 d, FT; pelargonic acid 5440 g/ha, flazasulfuron 50 g/ha; 8 L/ha
Excerpt: as §1, §2, §3, §4

Digitaria sang = assay: post-emergence test, field trial (Examples 1-5); conditions: FT, pelargonic acid 5440 g/ha, flazasulfuron 50 g/ha, 8 L/ha
Excerpt: as §1, §2, §3, §4

Sonchus oleraceus L. = assay: post-emergence test, field trial (Examples 1-5); conditions: FT, pelargonic acid 5440 g/ha, flazasulfuron 50 g/ha, 8 L/ha
Excerpt: as §1, §2, §3, §4

Lolium sp. = assay: post-emergence test, field trial (Examples 1-5); conditions: 7 d, FT; pelargonic acid 5440 g/ha, flazasulfuron 50 g/ha; 8 L/ha
Excerpt: as §1, §2, §3, §4

Chenopodium album = assay: post-emergence test, field trial (Examples 1-5); conditions: FT
Excerpt: as §1, §2, §3, §4

Setaria pumila = assay: post-emergence test, pot trial (Examples 1-5); conditions: young plants, 28 d, PT, pelargonic acid 10880 g/ha, 16 L/ha
Excerpt: as §1, §2, §3, §4

Geranium dissectum = assay: post-emergence test, pot trial (Examples 1-5); conditions: 28 d, PT, pelargonic acid 10880 g/ha, 16 L/ha
Excerpt: as §1, §2, §3, §4

Trifolium repens = assay: post-emergence test, pot trial (Examples 1-5); conditions: 28 d, PT; pelargonic acid 10880 g/ha, flazasulfuron 50 g/ha; 16 L/ha
Excerpt: as §1, §2, §3, §4

Poa annua = assay: post-emergence test, pot trial (Examples 1-5); conditions: 28 d, PT; pelargonic acid 10880 g/ha, flazasulfuron 50 g/ha; 16 L/ha
Excerpt: as §1, §2, §3, §4

Matricaria chamomilla = assay: post-emergence test, pot trial (Examples 1-5); conditions: bigger plants, 28 d, PT, pelargonic acid 10880 g/ha, 16 L/ha
Excerpt: as §1, §2, §3, §4

[1] = 3 d, pelargonic acid 10880 g/ha, flazasulfuron 25 g/ha, 16 L/ha
[2] = 3 d, pelargonic acid 21760 g/ha, flazasulfuron 25 g/ha, 32 L/ha
[3] = 7 d, pelargonic acid 10880 g/ha, flazasulfuron 25 g/ha, 16 L/ha
[4] = 7 d, pelargonic acid 10880 g/ha, flazasulfuron 50 g/ha, 16 L/ha
[5] = 7 d, pelargonic acid 21760 g/ha, flazasulfuron 50 g/ha, 32 L/ha
[6] = 13 d, pelargonic acid 10880 g/ha, flazasulfuron 25 g/ha, 16 L/ha
[7] = 13 d, pelargonic acid 10880 g/ha, flazasulfuron 50 g/ha, 16 L/ha
[8] = 13 d, pelargonic acid 21760 g/ha, flazasulfuron 25 g/ha, 32 L/ha
[9] = 13 d, pelargonic acid 21760 g/ha, flazasulfuron 50 g/ha, 32 L/ha
[10] = 23 d, pelargonic acid 10880 g/ha, flazasulfuron 25 g/ha, 16 L/ha
[11] = 23 d, pelargonic acid 21760 g/ha, flazasulfuron 25 g/ha, 32 L/ha
[12] = 23 d, pelargonic acid 21760 g/ha, flazasulfuron 50 g/ha, 32 L/ha
[13] = 30 d, pelargonic acid 10880 g/ha, flazasulfuron 25 g/ha, 16 L/ha
[14] = 30 d, pelargonic acid 21760 g/ha, flazasulfuron 25 g/ha, 32 L/ha
[15] = 38 d, pelargonic acid 10880 g/ha, flazasulfuron 25 g/ha, 16 L/ha
[16] = 38 d, pelargonic acid 21760 g/ha, flazasulfuron 25 g/ha, 32 L/ha

CCCCCCCCC(=O)O [Pelargonic acid, nonanoic acid]
herbicidal effect (%) (Stellaria media; Stellaria media/5 d, 5440 g of active compound/ha): 5% | herbicidal effect (%) (Stellaria media; Stellaria media/5 d, 10880 g of active compound/ha): 89% | herbicidal effect (%) (Stellaria media; Stellaria media/18 d, 5440 g of active compound/ha): 0% | herbicidal effect (%) (Stellaria media; Stellaria media/18 d, 8160 g of active compound/ha): 0% | herbicidal effect (%) (Stellaria media; Stellaria media/18 d, 10880 g of active compound/ha): 0% | herbicidal effect (%) (Taraxacum officinalis; Taraxacum officinalis/5 d, 5440 g of active compound/ha): 11% | herbicidal effect (%) (Taraxacum officinalis; Taraxacum officinalis/18 d, 5440 g of active compound/ha): 0% | herbicidal effect (%) (Taraxacum officinalis; Taraxacum officinalis/18 d, 8160 g of active compound/ha): 0% | herbicidal effect (%) (Taraxacum officinalis; Taraxacum officinalis/18 d, 10880 g of active compound/ha): 9% | herbicidal effect (%) (Taraxacum officinalis; Taraxacum officinalis/32 d, 5440 g of active compound/ha): 0% | herbicidal effect (%) (Taraxacum officinalis; Taraxacum officinalis/32 d, 8160 g of active compound/ha): 0% | herbicidal effect (%) (Taraxacum officinalis; Taraxacum officinalis/32 d, 10880 g of active compound/ha): 0% | herbicidal effect (%) (Taraxacum officinalis; Taraxacum officinalis/61 d, 5440 g of active compound/ha): 0% | herbicidal effect (%) (Taraxacum officinalis; Taraxacum officinalis/61 d, 8160 g of active compound/ha): 0% | herbicidal effect (%) (Taraxacum officinalis; Taraxacum officinalis/61 d, 10880 g of active compound/ha): 0% | herbicidal effect (%) (Taraxacum officinalis; Taraxacum officinalis/88 d, 5440 g of active compound/ha): 0% | herbicidal effect (%) (Taraxacum officinalis; Taraxacum officinalis/88 d, 8160 g of active compound/ha): 0% | herbicidal effect (%) (Taraxacum officinalis; Taraxacum officinalis/88 d, 10880 g of active compound/ha): 0% | herbicidal effect (%) (Veronica persicae; Veronica persicae/7 d, 5440 g of active compound/ha): 56% | herbicidal effect (%) (Veronica persicae; Veronica persicae/7 d, 8160 g of active compound/ha): 70% | herbicidal effect (%) (Veronica persicae; Veronica persicae/7 d, 10880 g of active compound/ha): 73% | herbicidal effect (%) (Veronica persicae; Veronica persicae/16 d, 5440 g of active compound/ha): 30% | herbicidal effect (%) (Veronica persicae; Veronica persicae/16 d, 8160 g of active compound/ha): 48% | herbicidal effect (%) (Veronica persicae; Veronica persicae/16 d, 10880 g of active compound/ha): 45% | herbicidal effect (%) (Veronica persicae; Veronica persicae/26 d, 5440 g of active compound/ha): 0% | herbicidal effect (%) (Veronica persicae; Veronica persicae/26 d, 8160 g of active compound/ha): 0% | herbicidal effect (%) (Veronica persicae; Veronica persicae/26 d, 10880 g of active compound/ha): 0% | herbicidal effect (%) (Veronica persicae; Veronica persicae/59 d, 5440 g of active compound/ha): 0% | herbicidal effect (%) (Veronica persicae; Veronica persicae/59 d, 8160 g of active compound/ha): 0% | herbicidal effect (%) (Veronica persicae; Veronica persicae/59 d, 10880 g of active compound/ha): 0% | herbicidal effect (Echinochloa crusgalli; 3 d, pelargonic acid 5440 g/ha, flazasulfuron 50 g/ha, 8 L/ha): 51.3% | herbicidal effect (Echinochloa crusgalli; [1]): 45% | herbicidal effect (Echinochloa crusgalli; [2]): 50% | herbicidal effect (Echinochloa crusgalli; 7 d, pelargonic acid 5440 g/ha, flazasulfuron 50 g/ha, 8 L/ha): 30.8% | herbicidal effect (Echinochloa crusgalli; [3]): 30% | herbicidal effect (Echinochloa crusgalli; [4]): 30% | herbicidal effect (Echinochloa crusgalli; [5]): 45% | herbicidal effect (Echinochloa crusgalli; 12 d, pelargonic acid 5440 g/ha, flazasulfuron 50 g/ha, 8 L/ha): 5% | herbicidal effect (Echinochloa crusgalli; [6]): 0% | herbicidal effect (Echinochloa crusgalli; [7]): 0% | herbicidal effect (Echinochloa crusgalli; [8]): 0% | herbicidal effect (Echinochloa crusgalli; [9]): 0% | herbicidal effect (Echinochloa crusgalli; [10]): 10% | herbicidal effect (Echinochloa crusgalli; 23 d, pelargonic acid 10880 g/ha, flazasulfuron 50 g/ha, 16 L/ha): 10% | herbicidal effect (Echinochloa crusgalli; [11]): 10% | herbicidal effect (Echinochloa crusgalli; [12]): 10% | herbicidal effect (Echinochloa crusgalli; 26 d, pelargonic acid 5440 g/ha, flazasulfuron 50 g/ha, 8 L/ha): 0% | herbicidal effect (Echinochloa crusgalli; [13]): 0% | herbicidal effect (Echinochloa crusgalli; [14]): 0% | herbicidal effect (Echinochloa crusgalli; [15]): 0% | herbicidal effect (Echinochloa crusgalli; [16]): 0% | herbicidal effect (Echinochloa crusgalli; 72 d, pelargonic acid 5440 g/ha, flazasulfuron 50 g/ha, 8 L/ha): 0% | herbicidal effect (Convolvulus arvensis L.): 11.3% | herbicidal effect (Erodium cicuta): 82.5% | herbicidal effect (Digitaria sang; 3 d): 51.3% | herbicidal effect (Digitaria sang; 7 d): 30.8% | herbicidal effect (Digitaria sang; 12 d): 5% | herbicidal effect (Digitaria sang; 72 d): 0% | herbicidal effect (Sonchus oleraceus L.; 3 d): 2.5% | herbicidal effect (Sonchus oleraceus L.; 7 d): 1.3% | herbicidal effect (Sonchus oleraceus L.; 13 d): 3.8% | herbicidal effect (Sonchus oleraceus L.; 28 d): 1.3% | herbicidal effect (Sonchus oleraceus L.; 58 d): 0% | herbicidal effect (Lolium sp.): 18.8% | herbicidal effect (Chenopodium album; [1]): 40% | herbicidal effect (Chenopodium album; 3 d, pelargonic acid 10880 g/ha, flazasulfuron 50 g/ha, 16 L/ha): 40% | herbicidal effect (Chenopodium album; [2]): 45% | herbicidal effect (Chenopodium album; 3 d, pelargonic acid 21760 g/ha, flazasulfuron 50 g/ha, 32 L/ha): 45% | herbicidal effect (Chenopodium album; [3]): 40% | herbicidal effect (Chenopodium album; [4]): 40% | herbicidal effect (Chenopodium album; 7 d, pelargonic acid 21760 g/ha, flazasulfuron 25 g/ha, 32 L/ha): 35% | herbicidal effect (Chenopodium album; [5]): 35% | herbicidal effect (Chenopodium album; [6]): 10% | herbicidal effect (Chenopodium album; [7]): 10% | herbicidal effect (Chenopodium album; [8]): 10% | herbicidal effect (Chenopodium album; [9]): 10% | herbicidal effect (Chenopodium album; [10]): 15% | herbicidal effect (Chenopodium album; [11]): 40% | herbicidal effect (Chenopodium album; [12]): 40% | herbicidal effect (Chenopodium album; [13]): 0% | herbicidal effect (Chenopodium album; 30 d, pelargonic acid 10880 g/ha, flazasulfuron 50 g/ha, 16 L/ha): 0% | herbicidal effect (Chenopodium album; [14]): 0% | herbicidal effect (Chenopodium album; 30 d, pelargonic acid 21760 g/ha, flazasulfuron 50 g/ha, 32 L/ha): 0% | herbicidal effect (Chenopodium album; [15]): 15% | herbicidal effect (Chenopodium album; 38 d, pelargonic acid 10880 g/ha, flazasulfuron 50 g/ha, 16 L/ha): 15% | herbicidal effect (Chenopodium album; [16]): 30% | herbicidal effect (Chenopodium album; 38 d, pelargonic acid 21760 g/ha, flazasulfuron 50 g/ha, 32 L/ha): 30% | herbicidal effect (Setaria pumila; flazasulfuron 25 g/ha): 40% | herbicidal effect (Setaria pumila; flazasulfuron 50 g/ha): 40% | herbicidal effect (Geranium dissectum; bigger plants, flazasulfuron 50 g/ha): 24% | herbicidal effect (Geranium dissectum; young plants, flazasulfuron 25 g/ha): 32% | herbicidal effect (Geranium dissectum; young plants, flazasulfuron 50 g/ha): 32% | herbicidal effect (Trifolium repens): 0% | herbicidal effect (Poa annua): 0% | herbicidal effect (Matricaria chamomilla; flazasulfuron 25 g/ha): 0% | herbicidal effect (Matricaria chamomilla; flazasulfuron 50 g/ha): 0%
